Assay results taken from article PMC4263271 (Nature, 2014).

What was measured:
[1] = biological target: ATP5B (ATP synthase subunit beta) (Homo sapiens, UniProt P06576); assay: DARTS with LC-MS/MS; format: binding; conditions: TNC buffer pH 8.0, 10 mM CaCl2; room temperature
[2] = biological target: PHD-2/Egln1 (Homo sapiens, UniProt Q9GZT9); assay: DARTS with Western blot, HeLa lysate; format: binding; conditions: TNC buffer pH 8.0, 10 mM CaCl2; room temperature
Sequence of PHD-2/Egln1 (Q9GZT9 2-426): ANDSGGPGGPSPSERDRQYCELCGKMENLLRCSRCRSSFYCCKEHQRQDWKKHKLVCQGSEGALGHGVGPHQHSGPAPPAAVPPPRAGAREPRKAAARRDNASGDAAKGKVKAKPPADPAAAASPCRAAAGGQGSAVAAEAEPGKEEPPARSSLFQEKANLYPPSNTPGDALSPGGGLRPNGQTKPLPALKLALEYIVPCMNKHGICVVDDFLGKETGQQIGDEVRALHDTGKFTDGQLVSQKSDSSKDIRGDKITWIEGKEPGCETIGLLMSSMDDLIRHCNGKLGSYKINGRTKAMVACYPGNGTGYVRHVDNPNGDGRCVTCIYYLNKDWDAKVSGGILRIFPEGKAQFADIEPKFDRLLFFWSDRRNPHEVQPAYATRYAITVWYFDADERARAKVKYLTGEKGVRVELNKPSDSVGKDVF

Sequence of ATP5B (ATP synthase subunit beta) (P06576 48-529): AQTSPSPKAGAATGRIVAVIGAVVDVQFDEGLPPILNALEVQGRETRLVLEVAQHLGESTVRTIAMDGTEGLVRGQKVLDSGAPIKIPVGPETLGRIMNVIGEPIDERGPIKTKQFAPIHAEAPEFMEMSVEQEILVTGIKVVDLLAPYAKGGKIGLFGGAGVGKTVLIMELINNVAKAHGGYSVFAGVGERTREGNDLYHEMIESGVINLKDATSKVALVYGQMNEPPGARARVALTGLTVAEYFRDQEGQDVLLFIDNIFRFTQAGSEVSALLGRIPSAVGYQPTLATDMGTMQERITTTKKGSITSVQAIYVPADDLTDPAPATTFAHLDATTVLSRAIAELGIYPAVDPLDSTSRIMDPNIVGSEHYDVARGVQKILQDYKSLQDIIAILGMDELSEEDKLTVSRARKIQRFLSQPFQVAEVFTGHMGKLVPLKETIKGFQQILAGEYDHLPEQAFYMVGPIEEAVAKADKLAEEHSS

Compound: O=C(O)CCC(=O)C(=O)O [α-KG]
- DARTS with LC-MS/MS (Jurkat) and Western blot (HeLa) [1]: DARTS confirms α-KG binding specifically to ATP5B
- DARTS with Western blot, HeLa lysate [2]: Binding between α-KG and PHD-2/Egln1
